According to US10052305B2, “Lipoic acid and derivatives thereof for the treatment of cystinuria” (Buck Institute for Research on Aging, priority 2015, dated 2018):

How the values were obtained:
Format in all cases: in vivo
[1] = system: Slc3a1−/− mice; experiment: Effect on cystine urinary stone growth tracked by μCT after switch to a lipoic acid diet; conditions: Slc3a1−/− mice on standard diet, switched on day 54 to diet with 0.5% (±)-α-lipoic acid; before vs after treatment
Description: To evaluate the effect of lipoic acid on cystine urinary stone growth, stone development was tracked by micro-computed tomography (μCT) in Slc3a1^−/− mice fed a standard diet. On day 54 of the study, the mice were switched onto a diet supplemented with 0.5% (±)-α-lipoic acid.

[2] = Real time food and water intake in metabolic cages; conditions: Slc3a1−/− mice; 0.5% (±)-α-lipoic acid diet vs standard diet; 3 days after 3 days of acclimation
Description: Real time food and water intake was measured in Slc3a1^−/− mice treated with 0.5% (±)-α-lipoic acid supplemented diet by group housing in metabolic cages. Mice were acclimated to the metabolic cage environment for 3 days and then evaluated for food and water intake for the subsequent 3 days.

[3] = system: Slc3a1−/− mice; experiment: Prevention of cystine stone formation in a genetic mouse model of cystinuria, evaluated by micro-computed tomography (μCT)
Description: A genetic mouse model of cystinuria was used to study the formation of cystine urinary stones. Mice lacking the gene Slc3a1 (Slc3a1^−/−) were fed a diet supplemented with 0.5% (±)-α-lipoic acid and evaluated for the formation of cystine stones using micro-computed tomography (μCT). […] On average, mice treated with lipoic acid developed much smaller cystine stones (mm^3). This experiment was repeated again (Experiment 2) with similar results; none (0 out of 6) of the lipoic acid treated cystinuric mice developed stones while all control, non-treated mice (8 out of 8) had developed urinary stones had developed stones by day 27 of the study.

With `O=C(O)CCCCC1CCSS1` (racemic) [Lipoic acid, (±)-α-lipoic acid] the “decrease of the rate of stone volume accumulation (mm^3/day)” value [1] was 90%, the “light cycle, dark cycle, or total food intake” value [2] was “did not especially alter” and the “light cycle, dark cycle, or total water intake” value [2] was “did not especially alter”. For the same compound, the “mice that developed stones” value ([3]; Experiment 2 (repeat), by day 27 of the study, non-treated mice 8 out of 8) was 0 out of 6, the “average cystine stone size vs non-treated mice” value ([3]; first experiment (FIG. 2), diet supplemented with 0.5% (±)-α-lipoic acid) was “much smaller” and the “mice that developed cystine stones” value ([3]; first experiment (FIG. 2), diet supplemented with 0.5% (±)-α-lipoic acid, non-treated mice 7/7) was 2 out of 8.
